Measured values reported in patent US9918966B2, “Anti-cancer compositions and methods” (The Penn State Research Foundation, priority 2013, dated 2018).

Legend:
1205 Lu melanoma cells [1] = assay: Cell cycle analysis, propidium iodide FACScan; format: cell-based, human; conditions: 72 h
Description: (§1) The effect of selenocoxib-1-GSH on cell cycle distribution is measured by analyzing propidium iodide stained 1205 Lu and UACC 903 cells using a BD FACScan. […] Total floating and adherent cells are collected following trypsinization and stained using a 1 mL propidium iodide solution containing 100 μg/mL propidium iodide; (Sigma, St Louis, Mo.), 20 μg/mL Ribonuclease A (Roche diagnostics, Indianapolis, Ind.) and 3 μg/mL Triton X-100 dissolved in 0.1% (W/V) sodium citrate for 30 m at 4° C.
(§2) Selenocoxib-1-GSH treatment increases the sub-G0-G1 cell population, which is indicative of cellular apoptosis. […] Total floating and adherent cells are collected, and stained with propidium iodide to analyze the distribution of cells in different phases of the cell cycle stages using a FACScan analyzer. […] Data represents an average of 2 independent experiments.

UACC 903 melanoma cells [2] = assay: Cell cycle analysis, propidium iodide FACScan; format: cell-based, human; conditions: 72 h
Description: as §1, §2

1205 Lu melanoma cells [3] = assay: Cell proliferation ELISA BrdU; format: cell-based, human; conditions: 72 h, increasing concentrations
Excerpt: (§3) Data represent averages of at least 3 independent experiments; bars; S.E.M.
(§4) Percentage of proliferating and apoptotic cells are quantified by a colorimetric using cell proliferation ELISA BrdU kit (Roche Applied Sciences, Indianapolis, Ind.) and Apo-ONE Homogenous caspase-3/7 assay kit (Promega, Madison Wis.), as described in Sharma A, et al., Clin Cancer Res 2009; 15:1674-85; and Madhunapantula S V, et al., Mal Cancer Ther 2008; 7:1297-308.

UACC 903 melanoma cells [4] = assay: Cell proliferation ELISA BrdU; format: cell-based, human; conditions: UACC 903, 72 h, increasing concentrations
Excerpt: as §3, §4

1205 Lu melanoma cells [5] = assay: Apo-ONE caspase-3/7 assay (apoptosis); format: cell-based, human; conditions: 72 h, dose dependent up to 25 μmol/L
Excerpt: as §3

UACC 903 melanoma cells [6] = assay: Apo-ONE caspase-3/7 assay (apoptosis); format: cell-based, human
Excerpt: as §3

1205 Lu melanoma cells [7] = assay: Reactive oxygen species (ROS) assay; format: cell-based, human; conditions: 5, 10, 15 and 20 μmol/L, 24 hours, compared to celecoxib and selenocoxib-1
Description: (§5) Intracellular ROS are monitored according to a procedure described in detail in Smasundaram et al., Cancer Res., 62:3868-3875, 2002. […] After 24 hours treatment, total cells (floating and adherent) are collected in ice-cold phosphate-buffered saline and 5×10^3 cells/well placed in 100 microliters culture medium in a 96-well plate containing 10 micromoles/liter 2′,7′-dichlorfluorescein-diacetate (commercially available from Sigma, St. Louis, Mo.) and incubated at 37° C. for 30 minutes. The amount of ROS present compared to DMSO vehicle treated cells was represented in arbitrary units.
(§6) Selenocoxib-1-GSH inhibits the generation of ROS.

UACC 903 melanoma cells [8] = assay: Reactive oxygen species (ROS) assay; format: cell-based, human; conditions: 5, 10, 15 and 20 μmol/L, 24 hours, compared to celecoxib and selenocoxib-1
Description: as §5, §6

[9] = tested on: 1205 Lu metastatic melanoma cells; assay: cells; conditions: Homo sapiens
Description: (§7) Cell viability, proliferation, apoptosis and cell cycle analysis: Viability and IC50 (μmol/L) of normal human melanocytes, fibroblast and melanoma cells following treatment with inhibitors are measured using the MTS assay (Promega, Madison, Wis.) described in Sharma A, et al., Clin Cancer Res 2009; 15:1674-85; and Madhunapantula S V, et al., Mol Cancer Ther 2008; 7:1297-308. […] IC50 values for each inhibitor in μmol/L for respective cell lines are measured from three independent experiments using GraphPad Prism version 4.01 (GraphPad Software, La Jolla, Calif.).
(§8) The number of viable cells is measured using MTS and percentage decrease in viability calculated. IC50 values for each inhibitor in μmol/L for respective cell lines are measured from three independent experiments using GraphPad Prism version 4.01 (GraphPad Software, La Jolla, Calif.).

[10] = tested on: UACC 903 metastatic melanoma cells; assay: cells; conditions: Homo sapiens
Description: as §7, §8

[11] = tested on: FOM103 normal human melanocytes; assay: Cell viability, MTS assay; format: cell-based; conditions: Melanocyte
Description: as §7, §8

[12] = tested on: FF2441 human fibroblast cells; assay: Cell viability, MTS assay; format: cell-based
Description: as §7, §8

[13] = tested on: WM115 vertical growth phase melanoma cells; assay: Cell viability, MTS assay; format: cell-based; conditions: Homo sapiens, WM-115
Description: as §7, §8

[14] = tested on: WM35 radial growth phase melanoma cells; assay: Cell viability, MTS assay; format: cell-based; conditions: Homo sapiens
Description: as §7, §8

[15] = tested on: normal human melanocytes or fibroblast cells
Description: as §7

[16] = Toxicity assessments: blood markers and H&E of vital organs; format: in vivo
Description: Four to six week old athymic-Foxn1^nu nude mice (Harlan Sprague Dawley, IN), are treated with either vehicle control or selenocoxib-1-GSH (n=5) as described in tumor kinetics studies. At the end of treatment, blood is collected from each sacrificed animal in a plasma separator tube with lithium heparin (BD Microtainer) following cardiac puncture and analyzed for ALKP (Alkaline phosphatase), ALT (Alanine aminotransferase), AST (Aspartate aminotransferase), ALB (Total albumin), TBIL (Total bilirubin), CREA (Creatinine), BUN (Blood urea nitrogen), CHOL (Total cholesterol), TRIG (Total triglyceride) and GLU (Glucose) levels to ascertain possible liver, heart, kidney, and pancreas related toxicity. A portion of vital organs, liver, heart, kidney, pancreas, and spleen-from each animal is formalin-fixed and paraffin-embedded to examine toxicity-associated changes in cell morphology and tissue organization following H&E staining as described in Nguyen N, et al. Cancer Prev Res (Phila) 2011; 4: 248-58.

NC(CCC(=O)NC(CS[Se]Cc1cc(-c2ccccc2)n(-c2ccc(S(N)(=O)=O)cc2)n1)C(=O)NCC(=O)O)C(=O)O (stereo not shown) [Selenocoxib-1-GSH, selenocoxib-1-glutathione]
increase of sub-G0-G1 population cells (1205 Lu melanoma cells [1]; 25 μmol/L): 6.2 fold | cell cycle progression (1205 Lu melanoma cells [1]; 12.5 and 25 μmol/L): inhibits cell cycle progression | increase of sub-G0-G1 population cells (UACC 903 melanoma cells [2]; UACC 903, 25 μmol/L): 4.7 fold | cell cycle progression (UACC 903 melanoma cells [2]; UACC 903, 12.5 and 25 μmol/L): inhibits cell cycle progression | cell proliferation (BrdU incorporation) (1205 Lu melanoma cells [3]): reduces proliferation | cell proliferation (BrdU incorporation) (UACC 903 melanoma cells [4]): reduces proliferation | caspase-3/7 activity (1205 Lu melanoma cells [5]): increases caspase-3/7 activity | caspase-3/7 activity (UACC 903 melanoma cells [6]; UACC 903, 50 μmol/L, 72 h): significant decrease | caspase-3/7 activity (UACC 903 melanoma cells [6]; UACC 903, 72 h, dose dependent up to 25 μmol/L): increases caspase-3/7 activity | ROS (1205 Lu melanoma cells [7]): more dramatically decreased ROS | ROS (UACC 903 melanoma cells [8]): more dramatically decreased ROS | IC50 ([9]; 24 h): 24.6 ± 2.2 µM | IC50 ([9]; 48 h): 17.2 ± 1.6 µM | IC50 ([9]; 72 h): 10.6 ± 2.6 µM | cytotoxicity at 12.5 µM ([9]; 72 h, read-out: decrease in cell viability): 40 to 60% | IC50 ([10]; UACC-903, 24 h): 30.9 ± 2.8 µM | IC50 ([10]; UACC-903, 48 h): 20.6 ± 1.7 µM | IC50 ([10]; UACC-903, 72 h): 14.2 ± 1.2 µM | cytotoxicity at 12.5 µM ([10]; UACC-903, 72 h, read-out: decrease in cell viability): 40 to 60% | IC50 ([11]; FOM103, 24 h): 66.3 ± 3 µM | IC50 ([11]; FOM103, 48 h): 53.4 ± 4.3 µM | IC50 ([11]; FOM103, 72 h): 41.2 ± 3.2 µM | IC50 ([12]; FF2441, 24 h): > 100 µM | IC50 ([12]; FF2441, 48 h): 75.5 ± 5.6 µM | IC50 ([12]; FF2441, 72 h): 36.3 ± 5.6 µM | IC50 ([13]; WM115, 24 h): 30.1 ± 3.3 µM | IC50 ([13]; WM115, 48 h): 5.8 ± 0.9 µM | IC50 ([13]; WM115, 72 h): 3.1 ± 0.4 µM | IC50 ([14]; WM35, 24 h): 52.6 ± 3.8 µM | IC50 ([14]; WM35, 48 h): 4.1 ± 0.8 µM | IC50 ([14]; WM35, 72 h): 2.7 ± 0.4 µM | toxicity on normal cells relative to melanoma cells [15]: significantly lower toxicity on normal cells | H&E stained tissue sections of liver, heart, lung, kidney or spleen ([16]; at the end of treatment, versus DMSO vehicle): no changes in the morphology or architecture | levels of blood markers for major organ related toxicity (ALKP, ALT, AST, ALB, TBIL, CREA, BUN, CHOL, TRIG, GLU) ([16]; mouse, in vivo): negligible differences compared to controls
